Test results taken from ChEMBL document CHEMBL1201862, “PubChem BioAssay data set” (2004).
Activity calls are given as the source filed them.

What was measured:
J774.A1 = experiment: Confirmation of image-based Screening Assay for Inhibitors of Phagocytosis. [Related pubchem assays (depositor defined):AID1029, AID1643]; assay type: functional, cell-based; settings: Mus musculus
[1] = target: Eukaryotic translation initiation factor 4E (Mus musculus, UniProt P63073); experiment: eIF4E–eIF4G protein interaction inhibitors, dose response, biochemical, TR-FRET (AID 855); assay type: functional;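 note: potency for disrupting eIF4E binding to eIF4GI seen as loss of FRET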
Sequence of Eukaryotic translation initiation factor 4E (P63073 whole entry): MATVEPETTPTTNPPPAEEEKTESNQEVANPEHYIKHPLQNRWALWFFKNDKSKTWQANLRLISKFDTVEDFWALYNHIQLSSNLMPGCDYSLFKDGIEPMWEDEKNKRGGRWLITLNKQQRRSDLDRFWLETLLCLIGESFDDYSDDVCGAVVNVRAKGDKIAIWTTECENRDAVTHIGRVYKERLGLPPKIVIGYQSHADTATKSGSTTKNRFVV

[2] = target: T1, E3 ubiquitin-protein ligase XIAP (Homo sapiens, UniProt P98170); experiment: Chemical Antagonists of IAP-family anti-apoptotic proteins confirmation. [Related pubchem assays (depositor defined):AID1018, AID1513, AID1514, AID1638, AID1749, AID1750, AID488957, AID488963]
T1 sequence (P98170 whole entry): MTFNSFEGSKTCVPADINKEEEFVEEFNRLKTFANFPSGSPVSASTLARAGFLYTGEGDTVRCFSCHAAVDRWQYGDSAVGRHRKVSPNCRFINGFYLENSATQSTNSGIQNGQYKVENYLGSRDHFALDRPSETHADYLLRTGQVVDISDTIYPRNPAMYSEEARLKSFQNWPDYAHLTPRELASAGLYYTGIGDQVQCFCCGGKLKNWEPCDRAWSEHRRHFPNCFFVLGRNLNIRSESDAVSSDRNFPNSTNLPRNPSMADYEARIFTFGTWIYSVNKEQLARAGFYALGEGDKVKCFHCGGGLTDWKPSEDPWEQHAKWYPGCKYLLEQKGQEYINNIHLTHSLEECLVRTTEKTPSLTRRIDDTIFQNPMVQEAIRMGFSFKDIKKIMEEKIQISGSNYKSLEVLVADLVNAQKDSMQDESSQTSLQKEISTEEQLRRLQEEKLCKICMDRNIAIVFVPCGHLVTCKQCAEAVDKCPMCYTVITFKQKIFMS

Hexokinase HKDC1 [3] = target: T2, Hexokinase HKDC1 (Homo sapiens, UniProt Q2TB90); experiment: HKDC1 hexokinase inhibitors, dose response, biochemical, W721R variant (AID 504729); assay type: functional
T2 sequence (Q2TB90 whole entry): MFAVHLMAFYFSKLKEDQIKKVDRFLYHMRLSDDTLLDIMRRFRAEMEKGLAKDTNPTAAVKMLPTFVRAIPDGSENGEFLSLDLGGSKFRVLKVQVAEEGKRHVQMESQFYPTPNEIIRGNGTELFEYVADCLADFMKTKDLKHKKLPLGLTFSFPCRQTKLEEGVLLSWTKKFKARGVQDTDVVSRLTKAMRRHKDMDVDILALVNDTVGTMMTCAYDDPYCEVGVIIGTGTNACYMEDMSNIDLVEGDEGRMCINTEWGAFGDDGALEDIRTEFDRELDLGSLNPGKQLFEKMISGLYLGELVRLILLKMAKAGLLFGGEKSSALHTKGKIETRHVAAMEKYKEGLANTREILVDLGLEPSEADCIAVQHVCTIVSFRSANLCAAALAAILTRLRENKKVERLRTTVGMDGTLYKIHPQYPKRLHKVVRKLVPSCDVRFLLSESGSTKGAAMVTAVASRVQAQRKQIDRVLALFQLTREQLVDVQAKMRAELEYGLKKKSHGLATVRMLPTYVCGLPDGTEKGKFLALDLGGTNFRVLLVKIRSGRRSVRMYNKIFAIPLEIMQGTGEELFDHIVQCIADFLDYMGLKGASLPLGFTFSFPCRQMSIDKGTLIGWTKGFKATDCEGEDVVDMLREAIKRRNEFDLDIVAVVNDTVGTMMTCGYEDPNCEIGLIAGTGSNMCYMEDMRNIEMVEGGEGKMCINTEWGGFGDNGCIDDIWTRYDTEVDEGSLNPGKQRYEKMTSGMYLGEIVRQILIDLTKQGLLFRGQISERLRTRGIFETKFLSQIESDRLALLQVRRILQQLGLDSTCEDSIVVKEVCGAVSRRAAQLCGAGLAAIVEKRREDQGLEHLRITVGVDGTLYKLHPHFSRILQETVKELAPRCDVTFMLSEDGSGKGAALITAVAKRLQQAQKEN

[4] = target: T1, E3 ubiquitin-protein ligase XIAP; experiment: XIAP antagonists, biochemical, IAP family, fluorescence polarization (AID 1018); assay type: functional
[5] = target: T1, E3 ubiquitin-protein ligase XIAP; experiment: Counter Screen using XIAP-Bir3 of the Chemical Antagonists of IAP-family anti-apoptotic proteins confirmation assay. [Related pubchem assays (depositor defined):AID1018, AID1449, AID1513, AID1638, AID1749, AID1750, AID488957, AID488963]
HEK293 = experiment: inhibitors of LMP1-driven NF-kB reporter, dose response, cell-based, HEK293, luciferase, cherry-pick (AID 588343); assay type: functional; settings: Homo sapiens
Hexokinase-1 = Hexokinase-1 (Homo sapiens, UniProt P19367); experiment: hexokinase 1 activators, dose response, selectivity assay for HKDC1 activator project, biochemical (AID 504762); assay type: functional
Hexokinase HKDC1 [6] = target: T2, Hexokinase HKDC1; experiment: HKDC1 hexokinase activators, dose response, biochemical, W721R variant (AID 504730); assay type: functional
Nonstructural protein 1 = Nonstructural protein 1 (Influenza A virus, UniProt Q194T2); assay type: functional, Influenza A virus (A/California/07/2009(H1N1))
Sequence of Nonstructural protein 1 (Q194T2 whole entry): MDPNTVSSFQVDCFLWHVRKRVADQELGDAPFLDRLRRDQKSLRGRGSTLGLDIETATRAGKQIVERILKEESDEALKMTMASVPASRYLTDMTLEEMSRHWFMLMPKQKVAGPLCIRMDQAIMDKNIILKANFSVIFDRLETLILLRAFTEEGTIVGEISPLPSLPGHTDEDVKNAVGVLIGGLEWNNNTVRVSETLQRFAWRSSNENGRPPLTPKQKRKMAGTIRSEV

[7] = target: T3, Kappa-type opioid receptor (Homo sapiens, UniProt P41145); experiment: SAR analysis of Antagonists of the Kappa Opioid Receptor (KOR) using an Image-Based Assay - Set 4. [Related pubchem assays (depositor defined):AID1777, AID1785]; assay type: functional
T3 sequence (P41145 whole entry): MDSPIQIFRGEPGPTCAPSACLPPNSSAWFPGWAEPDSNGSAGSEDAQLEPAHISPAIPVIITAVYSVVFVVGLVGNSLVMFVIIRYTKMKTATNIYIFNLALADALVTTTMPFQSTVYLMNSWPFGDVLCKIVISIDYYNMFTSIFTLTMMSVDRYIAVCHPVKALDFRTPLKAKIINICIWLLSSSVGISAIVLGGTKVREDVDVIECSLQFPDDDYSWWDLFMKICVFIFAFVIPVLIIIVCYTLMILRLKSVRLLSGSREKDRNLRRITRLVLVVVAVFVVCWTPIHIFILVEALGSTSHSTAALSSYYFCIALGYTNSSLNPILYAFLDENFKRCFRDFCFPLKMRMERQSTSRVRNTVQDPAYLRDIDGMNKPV

[8] = target: Delta-type opioid receptor (Homo sapiens, UniProt P41143); experiment: SAR Analysis of Antagonists of the DOR Receptor using an Image-Based Assay - Set 3. [Related pubchem assays (depositor defined):AID1777, AID1785]; assay type: functional;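 note: U2OS cells expressing DOR1 and beta-arrestin GFP stimulated with 100 nM SNC80; imaging of GFP-tagged beta-arrestin moving into spots after receptor activation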
Sequence of Delta-type opioid receptor (P41143 whole entry): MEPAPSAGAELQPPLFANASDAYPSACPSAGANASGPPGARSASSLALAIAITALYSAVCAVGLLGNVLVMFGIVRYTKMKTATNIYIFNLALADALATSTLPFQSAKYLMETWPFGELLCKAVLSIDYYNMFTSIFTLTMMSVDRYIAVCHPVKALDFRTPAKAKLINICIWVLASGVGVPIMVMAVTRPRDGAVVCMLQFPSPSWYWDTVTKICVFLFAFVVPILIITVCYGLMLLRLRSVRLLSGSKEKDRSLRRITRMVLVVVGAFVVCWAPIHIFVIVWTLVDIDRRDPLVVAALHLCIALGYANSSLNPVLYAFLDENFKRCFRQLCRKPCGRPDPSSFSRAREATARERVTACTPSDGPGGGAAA

Mu-type opioid receptor = Mu-type opioid receptor (Homo sapiens, UniProt P35372); experiment: SAR Analysis of Antagonists of the MOR Receptor using an Image-Based Assay - Set 3. [Related pubchem assays (depositor defined):AID1777, AID1785, AID1786, AID1966, AID2133, AID2136, AID2284, AID2285, AID2420]; assay type: functional
[9] = target: T3, Kappa-type opioid receptor; experiment: SAR analysis of small molecule antagonists of the kappa opioid receptor via a luminescent beta-arrestin assay - Set 4. [Related pubchem assays (depositor defined):AID1777, AID1778, AID1785, AID1786, AID1966, AID2133, AID2136, AID2285]; assay type: functional
[10] = target: Voltage-dependent T-type calcium channel subunit alpha-1H (Homo sapiens, UniProt O95180); experiment: Cav3.2 T-type channel inhibitors, cell-based, synthetic library set 1, calcium flux (AID 493022); assay type: functional
Sequence of Voltage-dependent T-type calcium channel subunit alpha-1H (O95180 whole entry): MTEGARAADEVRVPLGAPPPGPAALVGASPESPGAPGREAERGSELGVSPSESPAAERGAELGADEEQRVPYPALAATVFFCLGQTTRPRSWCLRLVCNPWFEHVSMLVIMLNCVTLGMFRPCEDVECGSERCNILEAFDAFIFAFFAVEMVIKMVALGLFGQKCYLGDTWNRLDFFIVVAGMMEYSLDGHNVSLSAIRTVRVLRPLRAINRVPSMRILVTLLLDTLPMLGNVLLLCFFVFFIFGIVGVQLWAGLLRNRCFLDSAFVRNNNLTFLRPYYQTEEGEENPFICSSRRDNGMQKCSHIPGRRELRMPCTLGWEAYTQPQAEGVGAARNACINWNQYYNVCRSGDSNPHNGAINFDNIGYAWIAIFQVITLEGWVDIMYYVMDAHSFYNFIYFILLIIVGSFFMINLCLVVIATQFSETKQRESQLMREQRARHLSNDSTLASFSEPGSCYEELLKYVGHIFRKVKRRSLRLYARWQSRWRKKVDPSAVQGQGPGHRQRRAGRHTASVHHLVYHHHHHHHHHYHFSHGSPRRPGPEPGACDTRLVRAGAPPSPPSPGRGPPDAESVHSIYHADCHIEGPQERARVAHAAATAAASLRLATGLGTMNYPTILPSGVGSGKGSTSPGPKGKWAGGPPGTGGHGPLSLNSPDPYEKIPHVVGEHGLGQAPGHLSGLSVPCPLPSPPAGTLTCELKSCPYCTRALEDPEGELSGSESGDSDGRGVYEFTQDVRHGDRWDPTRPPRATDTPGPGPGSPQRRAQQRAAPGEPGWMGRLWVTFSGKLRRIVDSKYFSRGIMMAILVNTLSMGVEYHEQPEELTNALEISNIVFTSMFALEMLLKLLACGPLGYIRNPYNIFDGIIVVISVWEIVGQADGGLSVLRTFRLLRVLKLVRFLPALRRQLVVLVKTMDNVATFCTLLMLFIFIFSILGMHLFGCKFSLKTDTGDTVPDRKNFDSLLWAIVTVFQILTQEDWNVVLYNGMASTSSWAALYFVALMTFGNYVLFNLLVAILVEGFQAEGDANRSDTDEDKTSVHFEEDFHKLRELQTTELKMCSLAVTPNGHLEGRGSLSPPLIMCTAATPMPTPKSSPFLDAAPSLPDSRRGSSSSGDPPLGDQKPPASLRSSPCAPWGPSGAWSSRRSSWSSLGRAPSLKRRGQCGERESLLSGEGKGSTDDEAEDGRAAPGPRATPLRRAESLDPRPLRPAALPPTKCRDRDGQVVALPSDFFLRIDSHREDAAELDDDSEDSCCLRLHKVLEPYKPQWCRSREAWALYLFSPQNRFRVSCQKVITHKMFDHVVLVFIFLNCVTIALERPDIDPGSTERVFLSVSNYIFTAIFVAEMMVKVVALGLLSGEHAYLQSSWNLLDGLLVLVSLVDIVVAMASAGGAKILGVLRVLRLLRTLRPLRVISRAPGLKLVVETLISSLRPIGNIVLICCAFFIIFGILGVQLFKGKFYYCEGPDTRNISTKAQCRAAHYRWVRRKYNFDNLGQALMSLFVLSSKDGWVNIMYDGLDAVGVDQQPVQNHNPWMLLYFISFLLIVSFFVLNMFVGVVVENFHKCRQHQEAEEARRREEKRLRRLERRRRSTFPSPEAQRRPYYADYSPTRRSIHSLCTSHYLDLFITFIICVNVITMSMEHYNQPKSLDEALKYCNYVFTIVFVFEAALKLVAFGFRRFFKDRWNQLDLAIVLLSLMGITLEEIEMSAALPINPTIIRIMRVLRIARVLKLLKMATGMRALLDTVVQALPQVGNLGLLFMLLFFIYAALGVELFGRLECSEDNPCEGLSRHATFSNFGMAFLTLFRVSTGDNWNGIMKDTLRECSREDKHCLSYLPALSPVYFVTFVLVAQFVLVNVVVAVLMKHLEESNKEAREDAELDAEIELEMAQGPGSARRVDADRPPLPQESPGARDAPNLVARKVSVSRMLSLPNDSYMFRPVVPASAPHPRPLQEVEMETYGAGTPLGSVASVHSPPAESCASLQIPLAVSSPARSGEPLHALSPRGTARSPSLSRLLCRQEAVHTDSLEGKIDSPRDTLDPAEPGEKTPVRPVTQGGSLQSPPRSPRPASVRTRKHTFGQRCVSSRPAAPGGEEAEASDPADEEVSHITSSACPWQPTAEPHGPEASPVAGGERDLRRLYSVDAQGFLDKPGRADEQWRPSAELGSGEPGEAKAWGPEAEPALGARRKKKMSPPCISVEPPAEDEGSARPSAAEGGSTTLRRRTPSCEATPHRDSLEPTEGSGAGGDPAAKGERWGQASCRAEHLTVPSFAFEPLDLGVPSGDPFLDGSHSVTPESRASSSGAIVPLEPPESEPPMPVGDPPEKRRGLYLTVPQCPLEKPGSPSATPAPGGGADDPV

[11] = target: Glyceraldehyde-3-phosphate dehydrogenase (Homo sapiens, UniProt P04406)
Sequence of Glyceraldehyde-3-phosphate dehydrogenase (P04406 whole entry): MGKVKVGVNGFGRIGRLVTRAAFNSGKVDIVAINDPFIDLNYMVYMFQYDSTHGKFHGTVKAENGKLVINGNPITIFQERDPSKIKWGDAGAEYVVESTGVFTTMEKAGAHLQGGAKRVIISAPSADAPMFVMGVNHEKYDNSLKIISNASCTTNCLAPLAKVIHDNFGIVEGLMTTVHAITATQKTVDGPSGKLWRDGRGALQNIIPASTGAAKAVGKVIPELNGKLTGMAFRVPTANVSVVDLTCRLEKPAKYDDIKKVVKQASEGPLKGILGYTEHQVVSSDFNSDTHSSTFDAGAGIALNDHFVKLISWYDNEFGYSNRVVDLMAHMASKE

[12] = target: T4, Alkaline phosphatase, tissue-nonspecific isozyme (Homo sapiens, UniProt P05186); experiment: human TNAP enzyme inhibitors, SAR follow-up, biochemical, luminescent, dose response (AID 1056)
T4 sequence (P05186 whole entry): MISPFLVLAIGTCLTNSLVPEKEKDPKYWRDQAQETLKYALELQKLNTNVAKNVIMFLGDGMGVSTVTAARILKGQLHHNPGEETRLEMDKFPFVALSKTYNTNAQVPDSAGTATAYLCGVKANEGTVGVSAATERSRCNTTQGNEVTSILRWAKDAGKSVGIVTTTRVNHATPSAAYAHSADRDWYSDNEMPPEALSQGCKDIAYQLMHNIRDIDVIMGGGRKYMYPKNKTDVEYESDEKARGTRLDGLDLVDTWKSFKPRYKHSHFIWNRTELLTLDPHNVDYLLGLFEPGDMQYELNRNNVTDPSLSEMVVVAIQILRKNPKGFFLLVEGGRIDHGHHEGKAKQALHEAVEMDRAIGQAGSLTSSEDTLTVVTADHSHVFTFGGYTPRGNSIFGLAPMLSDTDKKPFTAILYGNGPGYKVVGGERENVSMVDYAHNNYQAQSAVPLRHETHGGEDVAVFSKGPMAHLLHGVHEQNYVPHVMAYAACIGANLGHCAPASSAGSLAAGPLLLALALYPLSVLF

T-cell = experiment: inhibitors of CD8+ T cell–vesicle binding, dose response, mouse 2C CD8+ T cells, flow cytometry (AID 485284); assay type: functional
[13] = target: G-protein coupled receptor 55 (Homo sapiens, UniProt Q9Y2T6); experiment: SAR Analysis of Selective Antagonists of GPR55 using an Image-Based Assay - Set 3. [Related pubchem assays (depositor defined):AID2058, AID2079]; assay type: functional
Sequence of G-protein coupled receptor 55 (Q9Y2T6 whole entry): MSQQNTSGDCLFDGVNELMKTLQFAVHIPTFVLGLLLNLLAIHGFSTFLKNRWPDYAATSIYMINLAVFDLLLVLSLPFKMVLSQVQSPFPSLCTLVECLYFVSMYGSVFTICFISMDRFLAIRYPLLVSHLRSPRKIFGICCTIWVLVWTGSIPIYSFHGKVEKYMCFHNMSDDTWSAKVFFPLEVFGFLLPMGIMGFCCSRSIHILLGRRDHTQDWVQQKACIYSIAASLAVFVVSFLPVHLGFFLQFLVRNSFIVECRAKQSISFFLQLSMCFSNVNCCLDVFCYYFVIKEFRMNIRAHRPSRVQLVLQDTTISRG

[14] = target: T5, G-protein coupled receptor 35 (Homo sapiens, UniProt Q9HC97); experiment: SAR analysis of Antagonists of the GPR35 Receptor using an Image-Based Assay - Set 5. [Related pubchem assays (depositor defined):AID2058, AID2079]; assay type: functional
T5 sequence (Q9HC97 whole entry): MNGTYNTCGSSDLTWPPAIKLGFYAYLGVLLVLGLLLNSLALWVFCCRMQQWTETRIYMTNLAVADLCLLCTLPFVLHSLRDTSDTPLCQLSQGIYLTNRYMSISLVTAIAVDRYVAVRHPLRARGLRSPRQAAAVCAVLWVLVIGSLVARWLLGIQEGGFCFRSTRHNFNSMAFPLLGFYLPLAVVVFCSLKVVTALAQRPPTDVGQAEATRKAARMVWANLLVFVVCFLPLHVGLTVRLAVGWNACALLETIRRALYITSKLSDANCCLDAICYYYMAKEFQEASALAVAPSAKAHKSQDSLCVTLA

[15] = target: T5, G-protein coupled receptor 35; experiment: GPR35 antagonists blocking zaprinast-driven arrestin recruitment, primary screen, imaging, U2OS, beta-arrestin-GFP, zaprinast agonist (AID 2058); assay type: functional;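 note: antagonist potency meaning inhibition of agonist-induced arrestin redistribution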
[16] = target: T5, G-protein coupled receptor 35; experiment: SAR Analysis for the identification of Selective Antagonists of ERK1/2 Activity in GPR35-Overexpressing U2OS Cells - Set 2. [Related pubchem assays (depositor defined):AID2058, AID2079]; assay type: functional, cell-based
[17] = target: T6, RNA-binding protein pos-1 (Caenorhabditis elegans, UniProt G5EF15); experiment: inhibitors of POS-1/mex-3 RNA binding, dose response, biochemical, fluorescence polarization (AID 1964);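 note: purified POS-1 fused to maltose binding protein made in E. coli; potency of compounds blocking POS-1 binding to fluorescent RNA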
T6 sequence (G5EF15 whole entry): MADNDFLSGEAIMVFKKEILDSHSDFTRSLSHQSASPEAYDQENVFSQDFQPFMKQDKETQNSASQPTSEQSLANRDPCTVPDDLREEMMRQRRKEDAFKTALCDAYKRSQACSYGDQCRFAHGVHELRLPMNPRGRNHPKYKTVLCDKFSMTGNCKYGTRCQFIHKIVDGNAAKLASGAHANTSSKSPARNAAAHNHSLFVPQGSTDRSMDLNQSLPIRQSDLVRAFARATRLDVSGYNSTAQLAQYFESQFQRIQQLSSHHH

Aminopeptidase N = target: T7, Aminopeptidase N (Plasmodium falciparum FcB1/Columbia, UniProt O96935); experiment: P. falciparum M1AAP inhibitors, biochemical, fluorogenic H-Leu-NHMec substrate, 1536-well (AID 1445); design: species or system Plasmodium falciparum 3D7, 3D7
T7 sequence (O96935 whole entry): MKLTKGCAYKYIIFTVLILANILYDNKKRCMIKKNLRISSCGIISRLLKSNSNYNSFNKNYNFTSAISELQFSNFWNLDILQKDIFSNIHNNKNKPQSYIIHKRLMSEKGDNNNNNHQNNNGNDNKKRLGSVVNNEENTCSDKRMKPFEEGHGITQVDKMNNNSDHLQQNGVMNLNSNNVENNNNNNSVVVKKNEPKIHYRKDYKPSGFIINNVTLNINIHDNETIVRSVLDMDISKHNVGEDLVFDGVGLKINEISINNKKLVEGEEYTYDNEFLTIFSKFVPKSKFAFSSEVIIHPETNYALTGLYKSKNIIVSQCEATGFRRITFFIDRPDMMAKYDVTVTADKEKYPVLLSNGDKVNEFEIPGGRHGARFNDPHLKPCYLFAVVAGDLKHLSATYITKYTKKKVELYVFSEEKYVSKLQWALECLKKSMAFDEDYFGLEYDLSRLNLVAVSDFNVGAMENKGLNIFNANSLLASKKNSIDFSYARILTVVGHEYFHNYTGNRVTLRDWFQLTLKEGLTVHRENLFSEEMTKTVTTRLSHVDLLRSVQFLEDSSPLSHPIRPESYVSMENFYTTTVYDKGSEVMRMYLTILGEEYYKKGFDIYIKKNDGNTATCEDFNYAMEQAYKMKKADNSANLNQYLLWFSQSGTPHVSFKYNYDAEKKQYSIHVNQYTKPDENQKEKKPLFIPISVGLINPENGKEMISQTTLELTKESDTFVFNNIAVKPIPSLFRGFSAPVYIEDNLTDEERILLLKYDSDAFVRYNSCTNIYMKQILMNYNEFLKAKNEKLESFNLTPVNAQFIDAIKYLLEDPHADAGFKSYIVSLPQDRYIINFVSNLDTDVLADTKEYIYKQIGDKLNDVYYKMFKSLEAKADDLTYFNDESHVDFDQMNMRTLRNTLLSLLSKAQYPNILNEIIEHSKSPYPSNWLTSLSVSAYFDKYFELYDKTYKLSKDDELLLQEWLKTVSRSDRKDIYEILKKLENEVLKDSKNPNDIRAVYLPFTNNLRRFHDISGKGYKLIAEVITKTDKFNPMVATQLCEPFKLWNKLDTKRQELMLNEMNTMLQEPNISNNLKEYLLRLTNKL

[18] = target: T8, Zinc finger protein mex-5 (Caenorhabditis elegans, UniProt Q9XUB2); experiment: MEX-5/TCR-2 RNA interaction inhibitors, dose response, biochemical, C. elegans, fluorescence polarization (AID 1960)
T8 sequence (Q9XUB2 whole entry): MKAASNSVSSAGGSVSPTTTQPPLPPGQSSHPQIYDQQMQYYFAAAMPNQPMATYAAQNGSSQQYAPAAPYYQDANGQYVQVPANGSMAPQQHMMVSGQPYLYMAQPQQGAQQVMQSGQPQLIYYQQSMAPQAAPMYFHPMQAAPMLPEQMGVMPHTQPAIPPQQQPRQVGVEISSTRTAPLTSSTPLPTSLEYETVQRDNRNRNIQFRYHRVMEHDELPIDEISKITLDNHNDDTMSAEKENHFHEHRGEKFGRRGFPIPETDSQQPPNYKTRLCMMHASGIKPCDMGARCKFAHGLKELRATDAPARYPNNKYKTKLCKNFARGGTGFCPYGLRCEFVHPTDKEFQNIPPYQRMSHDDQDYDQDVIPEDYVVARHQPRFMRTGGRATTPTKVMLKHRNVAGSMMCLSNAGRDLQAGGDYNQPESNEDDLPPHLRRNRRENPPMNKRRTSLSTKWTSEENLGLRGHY

ORF 73 = ORF 73 (Human herpesvirus 8, UniProt O40947); experiment: inhibitors of C-LANA binding to LBS DNA, dose response, biochemical, fluorescence polarization, cherry-picked samples (AID 504725); design: species or system Human gammaherpesvirus 8;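 note: fluorescence polarization of a labeled DNA duplex reporting LANA DNA binding; potency is for inhibitors that block LANA binding to the DNA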

O=C(COc1ccc(-c2ccccc2)cc1)N1CCN(S(=O)(=O)Cc2ccccc2)CC1
IC50 (J774.A1): > 25 µM (inactive)

O=C(O)[C@@H](c1ccccc1)N1Cc2ccccc2C1=O
IC50 [1]: 13.8 µM (active) | IC50 [2]: 65.6 µM (active) | IC50 (Hexokinase HKDC1 [3]): 13.7 µM (active) | IC50 [4]: 28.3 µM (active) | IC50 [5]: > 200 µM (inactive)

CC(=NNC(=S)N1CCCCC1)c1cccc(C)n1
AC50 (HEK293): 2.74 µM (active) | EC50 (Hexokinase-1): > 80 µM (inactive) | EC50 (Hexokinase HKDC1 [6]): 14.5 µM (active) | IC50 (Nonstructural protein 1): 3.84 µM (active)

Cc1ccc(S(=O)(=O)NCc2ccc(C(=O)NCCN3CCC(c4ccccc4)CC3)cc2)cc1
IC50 [7]: 10.6 µM (inactive) | IC50 [8]: > 32 µM (inactive) | IC50 (Mu-type opioid receptor): 3.88 µM (active) | IC50 [9]: > 20 µM (inactive)

CC(C)(Oc1ccccc1)C(=O)Nc1nnc(-c2ccc3ccccc3c2)o1
EC50 [10]: 1.1 µM (active)

c1cncc(-n2cncn2)c1
IC50 [11]: > 100 µM (not active) | IC50 [12]: > 100 µM (inactive)

CCN(CC)CCNC(=O)CCCNC(=O)Cn1cnc2sc(C)c(C)c2c1=O
EC50 (T-cell): 9.52 µM (active)

COC(=O)c1cnn(-c2ccc(F)cc2F)c1/C=N/NC(=S)NC(C)(C)C
IC50 [13]: 9.08 µM (active) | IC50 [14]: 0.16 µM (active) | IC50 [15]: < 0.5 µM (active) | IC50 [16]: 1.39 µM (active)

CS(=O)(=O)Nc1nc2n(n1)C(c1ccccc1)C=C(c1ccc(Br)cc1)N2 (stereo unspecified)
EC50 [17]: > 300 µM (not active) | IC50 (Aminopeptidase N): 45.3 µM (active) | EC50 [18]: 6.39 µM (active) | AC50 (ORF 73): 8.07 µM (active)
